From the NIST ThermoML archive (doi:10.1021/je060271a)

Details: 303.14 K, Liquid, Vibrating tube method

CCCCCCC(=O)OCC(COC(=O)CCCCCC)(COC(=O)CCCCCC)COC(=O)CCCCCC [pentaerythritol tetraheptanoate]
Details	mass density [kg/m3]
163.7 kPa	970.9
201.8 kPa	970.9
226 kPa	970.8
241.8 kPa	970.9
250.8 kPa	970.9
258.8 kPa	970.8
267.9 kPa	970.9
279.3 kPa	971
289.8 kPa	970.8
301.4 kPa	970.9
315.8 kPa	970.9
328.9 kPa	970.9
342.6 kPa	970.8
354.2 kPa	971
366.8 kPa	970.9
380 kPa	971
397.2 kPa	971
412.5 kPa	971
432.5 kPa	970.9
450.7 kPa	970.9
470.3 kPa	971
496.8 kPa	971
520.4 kPa	971.1
547 kPa	971.1
581.4 kPa	970.9
613 kPa	971.2
645.8 kPa	971.1
676.4 kPa	971.1
706.7 kPa	971.2
734.4 kPa	971.2
762.1 kPa	971.2
785 kPa	971.2
807.4 kPa	971.1
827.2 kPa	971.2
847.6 kPa	971.2
869.1 kPa	971.2
895.8 kPa	971.3
919.6 kPa	971.2
944.3 kPa	971.2
969.8 kPa	971.3
1002.7 kPa	971.3
1031.7 kPa	971.4
1063.1 kPa	971.4
1101.5 kPa	971.3
1163.5 kPa	971.4
1217.5 kPa	971.4
1278.3 kPa	971.6
1312.2 kPa	971.5
1337.9 kPa	971.6
1347.4 kPa	971.5
1357.1 kPa	971.5
1376.9 kPa	971.5
1461 kPa	971.6
1578.5 kPa	971.7
1661.5 kPa	971.6
1692.7 kPa	971.7
1725.9 kPa	971.9
1765.8 kPa	971.8
1800.2 kPa	971.8
1836.8 kPa	971.9
1873.8 kPa	971.9
1919.1 kPa	972
1958.5 kPa	971.8
2006.7 kPa	971.9
2049 kPa	972.1
2092.9 kPa	971.9
2137.7 kPa	972.1
2193.4 kPa	972
2240.2 kPa	972.1
2293.3 kPa	972.3
2315.9 kPa	972.1
2329.2 kPa	972.2
2344.7 kPa	972.2
2358.2 kPa	972.3
2371.9 kPa	972.1
2388.4 kPa	972.3
2402.1 kPa	972.3
2416.3 kPa	972.3
2433 kPa	972.3
2447.2 kPa	972.3
2464.4 kPa	972.2
2478.9 kPa	972.3
2494 kPa	972.2
2508.9 kPa	972.2
2528 kPa	972.2
2539.8 kPa	972.2
2558.1 kPa	972.4
2573.1 kPa	972.3
2592.1 kPa	972.3
2607.7 kPa	972.4
2623.3 kPa	972.3
2639.6 kPa	972.3
2658.8 kPa	972.5
2675.1 kPa	972.3
2691.8 kPa	972.4
2711.7 kPa	972.4
2728.4 kPa	972.4
2745.4 kPa	972.5
2766 kPa	972.5
2783.2 kPa	972.6
2800.7 kPa	972.5
2821.5 kPa	972.6
2839.7 kPa	972.5
2857.4 kPa	972.6
2879.2 kPa	972.5
2897.6 kPa	972.5
2916.3 kPa	972.5
2935.4 kPa	972.5
2957.6 kPa	972.5
2976.7 kPa	972.5
2995.9 kPa	972.5
3019.1 kPa	972.7
